Patent US7371776B2, “Methods and compositions for treating cancer” (Mars, Incorporated, priority 2004, dated 2008)

Key:
Type in all cases: cell-based, human
[1] = system: MCF-10A cells; test: Crystal violet cellular proliferation assay; conditions: 100 μg/mL
Description: (§1) The MCF-10A cell line (spontaneously immortalized, non-tumorigenic human mammary epithelial cell line with non-mutated p53) was maintained in F-12/DMEM medium supplemented with 5% horse serum (Gibco), 20 ng/mL EGF (Upstate Biotechnology Incorporated, Lake Placid, N.Y.), 10 μg/mL insulin (Biofluids, Rockville, Md.), and 500 ng/mL hydrocortisone. The same media were used for MCF-10A-ErbB2/Ras cells (Ciardiello, F. et al., Mol Carcinog., 6: 43-52. 1992) and MCF-10A-c-Myc cells (Sheen, J-H. et al., Mol. Cell. Biol., 22: 1819-1833, 2002).
(§2) One×10^3 cells per well were seeded in 96 well dishes (Coming Costar, Cambridge, Mass.). Primary cultures of HMECs, A1N4 and 184B5 cells were evaluated at two different cell densities (seeded at 1×10^3 and 2×10^3 per well). After 24 hours of cell attachment, cells in triplicate wells were treated with pentamer at a concentration of 100 μg/mL. The cells on the same plate were treated with corresponding controls: (i) media containing DMSO, and (ii) media with no additions.
(§3) Cells were treated for 1, 2, 3, 6, 8 and 10 days, but in some cases, the samples were collected at days 2, 3, 4, 7 and 10 post-treatment. Each treatment was conducted in triplicate. Samples were collected at each time point as follows: media was removed and 50 μL of crystal violet solution (0.1% of crystal violet in 0.1 M citric acid solution) was added to each well at room temperature and plates were incubated for 15 minutes, followed by washing with deionized water. Plates were dried at room temperature overnight. The following day, plates were destained by adding 100 μL of 0.1 M sodium citrate solution into each well. Plates were incubated for one hour. The optical density (OD) of samples was read at 550 nm on an Ultramark Microplate Imagining System (BioRad, Philadelphia, Pa.). The experiment was repeated twice resulting in an average of nine measurements per sample. Statistical significance was determined using the t test analysis.

[2] = system: MCF-10A-ErbB2/Ras cells; test: Crystal violet cellular proliferation assay; conditions: 100 μg/mL
Description: as §1, §2, §3

[3] = system: MCF-10A-c-Myc cells; test: Crystal violet cellular proliferation assay; conditions: 100 μg/mL
Description: as §1, §2, §3

[4] = system: MCF-10A cells; test: Mitochondrial membrane potential depolarization (ApoAlert, flow cytometry)
Description: (§4) Mitochondrial membrane potential was determined using ApoAlert™ Mitochondrial Membrane Sensor Kit (Clonetech Inc., Palo Alto, Calif.). The MDA MB-231, MCF-7, MDA MB-468, MDA MB-436, SKBR-3, MCF-10A, MCF-10A-c-Myc and AIN4 cells were grown, in appropriate media, to 60-70% confluence in 25 cm^2 dishes. The following day, the complete media was replaced with complete media containing (i) pentamer (100 μg/mL, or in some cases with 25 μg/mL), (ii) media with DMSO, or (iii) media only. Initially, cells were grown in the presence of pentamer for 1, 2, 3, 6, 12 and 24 hrs but only 1, 2 and 6 hrs treatments were selected for subsequent studies. All floating and adherent cells were combined, and then the cells were aliquoted into flow cytometry tubes. Approximately, 1×10^6 cells per tube were analyzed, according to the manufacturer's instructions. Samples were analyzed at the Lombardi Comprehensive Cancer Center Core Flow Cytometry Shared Resource Facility.

[5] = system: MCF-7 cells; test: as above; conditions: several attempts, different passages
Description: as §4

[6] = system: MDA MB-436 cells; test: as above
Description: as §4

[7] = system: MDA MB-468 cells; test: as above
Description: as §4

[8] = system: SKBR-3 cells; test: as above
Description: as §4

[9] = system: PARP; test: PARP cleavage in MDA MB-231 cells; conditions: 48 hours treatment
From the text: Rabbit polyclonal poly (ADP-ribose) polymerase (PARP) (H-250) was obtained from Santa Cruz Biotechnology Inc., (Santa Cruz, Calif.). α-Tubulin antibody was obtained from Neomarkers, Fremont, Calif. All antibodies used for proteomics analysis were obtained from Cell Signaling (Beverly, Mass.), Upstate Biotechnology (Lake Placid, N.Y.), Neomarkers (Fremont, Calif.) and Santa Cruz (Santa Cruz, Calif.) (Table 2). Referring to Table 2, Abs designated as “mouse” were monoclonal Abs, and Abs designated as “rabbit” were polyclonal Abs. The ECL detection reagent was obtained from Amersham (Arlington Heights, Ill.).
To determine whether depolarization of the mitochondrial membrane, induced by pentamer leads to apoptotic cellular death in human breast cancer cells lines, MDA MB-231 and MCF-7 cells were examined for PARP cleavage products. Since PARP is one of the downstream substrates of the caspase cascade, it is an excellent marker of apoptosis [Soldani, C. et al., Apoptosis, 7: 321-328, 2002].

[10] = system: p53; test: High resolution profiling (P-FILM) of p53 in MDA MB-231 cells; conditions: 100 μg/mL
Description: Both p53 and pRb contain multiple phosphorylation sites, and evaluating each site separately provides a more accurate indication of each protein's potential function. Therefore, a high resolution functional profiling of the proteins was performed using P-FILM technology (20/20 Gene Systems, Inc.).
The same protein samples as those used for PDVF membrane blotting were used. Ten μg of each protein sample of MDA MB-231 cells, and in some cases MDA MB-468 and MCF-7 cells, treated with 100 μg /mL of pentamer or DMSO-treated controls, were separated by PAGE on 4-20% gradient gels (BioRad). Proteins were transferred on a stack of ten membranes, according to manufacturer's instructions (20/20 Gene Systems, Inc.). The membranes were probed with antibodies recognizing total and phosphorylated p53 (p53Ser6, Ser9, Ser15, Ser20, Ser37, Ser46 and Ser392) at 1:1000 dilution as recommended by the manufacturer (Cell Signaling). The secondary antibody used in all cases was anti-rabbit polyclonal 1:2000 (Amersham). Signals were visualized on BIOMAX MR film (Kodak). The profiling of pRb was done using anti-phospho pRb (Ser780, Ser 795 and Ser 807/811) and anti-pRb polyclonal antibody (Cell Signaling) at a 1:1000 dilution. The secondary antibody used in all cases was anti-rabbit at 1:2000 dilution (Amersham). Image analysis was performed with Kodak 1D image analysis software. Background corrected intensity values were normalized for loading by using GAPDH intensities. Numerical analysis was performed in Excel.

[11] = pentamer-treated, average of three experiments

Structure (SMILES): Oc1cc(O)c2c(c1)O[C@H](c1ccc(O)c(O)c1)[C@H](O)[C@H]2c1c(O)cc(O)c2c1O[C@H](c1ccc(O)c(O)c1)[C@H](O)[C@H]2c1c(O)cc(O)c2c1O[C@H](c1ccc(O)c(O)c1)[C@H](O)[C@H]2c1c(O)cc(O)c2c1O[C@H](c1ccc(O)c(O)c1)[C@H](O)[C@H]2c1c(O)cc(O)c2c1O[C@H](c1ccc(O)c(O)c1)[C@H](O)C2 [pentamer, pentameric procyanidin]
- pentamer-induced growth inhibition [1]: equally resistant
- pentamer-induced growth inhibition [2]: equally resistant
- pentamer-induced growth inhibition [3]: equally resistant
- MMP depolarization, Fold Increase over DMSO [4]: 2
- MMP depolarization (%) [4, 11]: 20%
- depolarization of the mitochondrial membrane [5]: depolarization could not be demonstrated
- MMP depolarization, Fold Increase over DMSO [6]: 5.7
- MMP depolarization (%) [6, 11]: 50%
- MMP depolarization, Fold Increase over DMSO [7]: 5
- MMP depolarization (%) [7, 11]: 60%
- MMP depolarization, Fold Increase over DMSO [8]: 2.5
- MMP depolarization (%) [8, 11]: 25%
- main band of PARP (cleavage) [9]: uncleaved
- percentage of p53 phosphorylated at Ser392 decreased, compared to untreated controls [10]: 53%
- phosphorylation of p53 Ser15 residue ([10]; 48 h): slight decreases
- phosphorylation of p53 Ser46 ([10]; 48 h): slight decreases
- phosphorylation of p53 Ser20 residue ([10]; 48 hrs): decreased
- levels of endogenous p53 expression ([10]; 48 hrs, not significant by densitometry): slightly decreased
- phosphorylation of p53 Ser20 residue ([10]; 72 hrs): not affected
- phosphorylation of p53 Ser392 residue ([10]; both 48 and 72 hrs): significant dephosphorylation
